Reference: patent US9212142B2 (Trustees of Tufts College, priority 2010, dated 2015)

Experiments:
[1] = niacin 1500 mg (roughly equimolar dose); niacin was no arm of the trial; cited from earlier work
[2] = Once daily vs twice daily dosing of ARI-001, plasma lipids in animal models; type: in vivo; details: ARI-001 given once daily
[3] = ARI-001 concentrations in liver and adipose tissue vs plasma; type: in vivo, Golden Syrian hamster; details: HF/HS hamsters dosed 18 days; p<0.01
Experimental: Tissue samples were harvested from hamsters in the above-described 18-day experiment to determine the concentrations of ARI-001 in both liver and adipose tissue. Briefly, liver and adipose samples were harvested at the termination of the experiment; the samples were flash frozen in liquid nitrogen and then stored at −80° C. until used for analysis. To prepare for analysis, a sample of liver was excised from the frozen mass, weighed, and homogenized with a tissue grinder followed by sonication in buffer. The solid materials were then removed by centrifugation. To prepare for LC-MS analysis, the homogenate was then treated to the same preparation technique described for plasma preparation (vide supra). A sample of adipose was excised from the frozen mass, and transferred to a mortar and pestle cooled with liquid nitrogen. During grinding, liquid nitrogen was added to ensure the sample of adipose remained solid. The ground sample was transferred to a tared tube to weigh total sample. This ground sample was extracted with methanol, and this compound-containing methanol was separated from lipid by cooling to −20° C. […]
FIG. 8 graphs the correlation between concentrations of ARI-001 in plasma versus liver (left), and in plasma versus adipose (right). […] Pearson r was determined using all data points illustrated. P-value was determined for a 2-tailed t-test using all data points illustrated.

[4] = Single-dose pharmacokinetic study of ARI-001 in wild type mice (PO, IP); type: in vivo, C57BL/6 mice; details: oral gavage or intraperitoneal injection
Experimental: Plasma from the 19 hamsters dosed with ARI-001 in the above described 18-day study was analyzed for concentrations of ARI-001. Concentrations were determined for these samples, which were collected 24 hours after the final dose was administered. Briefly, plasma drug concentrations for the non-GLP pharmacokinetic experiments were determined by LC-MS using an Applied Biosystems 4000Qtrap spectrometer with electrospray ionization. Samples were prepared for analysis by precipitation of plasma proteins with cold methanol. HPLC of the samples was done with an Agilent Eclipse C18 column and a methanol/water gradient containing 0.1% formic acid and 5 mM ammonium acetate. ARI-001 was detected using multiple reaction monitoring (MRM) in the positive ion mode. For quantitation, a standard curve was measured by addition of known amounts of ARI-001 to plasma from untreated animals and preparing in a manner identical to the samples from treated animals. […] Pearson r values were determined using all data points, as was the two-tailed P-value for the data set.
Wild type C57BL/6 mice were dosed with a single administration of ARI-001 in solution either via oral gavage (PO) or via intraperitoneal injection (IP). Blood samples were then collected at various time points over a 24-hour period; plasma was then analyzed for concentrations of ARI-001 as described earlier. […]

high fat-fed hamsters [5] = test: Plasma glucose in high fat-fed hamsters dosed 18 days; type: in vivo, Golden Syrian hamster; details: ARI-001 1120 and 2240 mg/kg
Experimental: These animals were dosed for 18 consecutive days, while being on a HF/HS diet for a total of nearly 5 weeks. We also examined the glucose levels in the plasma of these animals. For pharmacokinetic studies, we utilized wild type mice for both single and repeated administration study. Finally, pharmacokinetic studies were corroborated by data from single and repeated administration to monkeys.

high fat-fed hamsters [6] = test: Liver function tests (AST, ALT) in plasma of high fat-fed hamsters dosed 18 days; type: in vivo, Golden Syrian hamster
Experimental: These animals were dosed for 18 consecutive days, while being on a HF/HS diet for a total of nearly 5 weeks. We also examined the glucose levels in the plasma of these animals. For pharmacokinetic studies, we utilized wild type mice for both single and repeated administration study. Finally, pharmacokinetic studies were corroborated by data from single and repeated administration to monkeys. […] AST and ALT were measured using commercially available kits (Bio-Quant Diagnostic Kits, San Diego, Calif.). As expected, AST and ALT values from untreated hamsters (vehicle group) were very high, as the high fat diet leads to hepatomegaly and fatty liver. This disease state is reflected in the elevated AST and ALT levels.

[7] = Pharmacokinetics of multiple administrations of ARI-001 to fasted monkeys; type: in vivo, Macaque monkeys; details: 288 mg/kg oral gavage once per day, seven days
Experimental: ARI-001 was administered to monkeys via oral gavage once per day for a total of seven days. Blood samples were collected after the first and after the last administrations to measure plasma concentrations of ARI-001.

[8] = Multiple administration pharmacokinetic study of ARI-001 in wild type mice; type: in vivo, C57BL/6 mice; details: 996, 1493, 2240, 3360 mg/kg oral gavage daily, 30 days
Experimental: Wild type C57BL/6 mice were dosed with ARI-001 in solution via oral gavage daily for 30 consecutive days. Over the course of five 24-hour periods, blood was collected, and the resultant plasma was analyzed for concentrations of ARI-001. Four doses were used: 996 mg/kg, 1493 mg/kg, 2240 mg/kg, and 3360 mg/kg. […] However, these values were time-independent, as there was no trend observed between these parameters and days of administration. See FIGS. 15A-15D and FIGS. 16A-16B.

[9] = Stability of ARI-001 stored at 50° C., purity by LC-MS; type: physicochemical
Experimental: ARI-001 was synthesized as described above. Purity was determined independently before use in experiments by examination via liquid chromatography-mass spectroscopy (LC-MS). A sample of material was dissolved in water/acetonitrile and injected onto a Discovery C-18 reverse phase column. The mobile phase began as 2%:98% acetonitrile:water, which was held for three minutes, after which a linear gradient was started that ran over 6 minutes, increasing the percent of acetonitrile until a final ratio of 98%:2% acetonitrile:water was reached. This final ratio was held for 3 minutes. The major peak was identified as ARI-001.
Stability was determined by storing ARI-001 under 50° C. with no specified humidity requirement. At various time points over the course of 3 months (90 days), a small sample (<5 mg) of ARI-001 was collected for analysis using LC-MS under the same conditions as used for purity determination (vide supra).

O=C(O)c1cccnc1 [Niacin, nicotinic acid]
Cmax [1]: about 30,000 ng/mL

O=C(O)c1ccc(CCN2CCOCC2)nc1 [ARI-001]
changes in plasma lipids, once daily vs same total dose twice daily [2]: greater than or equal to the lipid altering effects observed with the same total dose of ARI-001 given twice daily
correlation between concentrations of ARI-001 in plasma versus adipose [3]: highly statistically significant
correlation between concentrations of ARI-001 in plasma versus liver [3]: highly statistically significant
remaining plasma concentration of ARI-001 at the 24 hour timepoint [4]: undetectable
glucose levels in comparison to the vehicle cohort (high fat-fed hamsters [5]): neither dose of ARI-001 produced any significant change
AST in plasma vs vehicle (high fat-fed hamsters [6]; ARI-001 2240 mg/kg): drastically reduced
ALT in plasma vs vehicle (high fat-fed hamsters [6]; ARI-001 1120 and 2240 mg/kg, dose-dependent): similarly reduced
Cmax value day 7 versus day 1 [7]: higher on day 7 than on day 1
concentrations 24 hours after the first or the last doses [7]: essentially identical
plasma concentrations on day 1 versus day 7 [7]: very little difference
Cmax levels and total 24-hour exposure (AUC) vs days of administration [8]: time-independent
Cmax levels and total 24-hour exposure (AUC) vs dose [8]: dose-dependent
purity of ARI-001 on storage ([9]; after 90 days): 95.9%
purity of ARI-001 on storage ([9]; unregulated humidity, 65 days): 98.9%
